Data from ChEMBL document CHEMBL4330091, “The discovery and optimization of benzimidazoles as selective NaV1.8 blockers for the treatment of pain” (Bioorg Med Chem, 2019).
Converted amounts (≈) assume the structure as drawn. One block for each compound: values may come before it.

How the values were obtained:
[1] = molecular target: Sodium channel protein type 10 subunit alpha (Homo sapiens, UniProt Q9Y5Y9); assay: Inhibition of human Nav1.8 expressed in HEK cells by patch-clamp electrophysiology method; format: cell-based
Chain of Sodium channel protein type 10 subunit alpha (Q9Y5Y9 whole entry): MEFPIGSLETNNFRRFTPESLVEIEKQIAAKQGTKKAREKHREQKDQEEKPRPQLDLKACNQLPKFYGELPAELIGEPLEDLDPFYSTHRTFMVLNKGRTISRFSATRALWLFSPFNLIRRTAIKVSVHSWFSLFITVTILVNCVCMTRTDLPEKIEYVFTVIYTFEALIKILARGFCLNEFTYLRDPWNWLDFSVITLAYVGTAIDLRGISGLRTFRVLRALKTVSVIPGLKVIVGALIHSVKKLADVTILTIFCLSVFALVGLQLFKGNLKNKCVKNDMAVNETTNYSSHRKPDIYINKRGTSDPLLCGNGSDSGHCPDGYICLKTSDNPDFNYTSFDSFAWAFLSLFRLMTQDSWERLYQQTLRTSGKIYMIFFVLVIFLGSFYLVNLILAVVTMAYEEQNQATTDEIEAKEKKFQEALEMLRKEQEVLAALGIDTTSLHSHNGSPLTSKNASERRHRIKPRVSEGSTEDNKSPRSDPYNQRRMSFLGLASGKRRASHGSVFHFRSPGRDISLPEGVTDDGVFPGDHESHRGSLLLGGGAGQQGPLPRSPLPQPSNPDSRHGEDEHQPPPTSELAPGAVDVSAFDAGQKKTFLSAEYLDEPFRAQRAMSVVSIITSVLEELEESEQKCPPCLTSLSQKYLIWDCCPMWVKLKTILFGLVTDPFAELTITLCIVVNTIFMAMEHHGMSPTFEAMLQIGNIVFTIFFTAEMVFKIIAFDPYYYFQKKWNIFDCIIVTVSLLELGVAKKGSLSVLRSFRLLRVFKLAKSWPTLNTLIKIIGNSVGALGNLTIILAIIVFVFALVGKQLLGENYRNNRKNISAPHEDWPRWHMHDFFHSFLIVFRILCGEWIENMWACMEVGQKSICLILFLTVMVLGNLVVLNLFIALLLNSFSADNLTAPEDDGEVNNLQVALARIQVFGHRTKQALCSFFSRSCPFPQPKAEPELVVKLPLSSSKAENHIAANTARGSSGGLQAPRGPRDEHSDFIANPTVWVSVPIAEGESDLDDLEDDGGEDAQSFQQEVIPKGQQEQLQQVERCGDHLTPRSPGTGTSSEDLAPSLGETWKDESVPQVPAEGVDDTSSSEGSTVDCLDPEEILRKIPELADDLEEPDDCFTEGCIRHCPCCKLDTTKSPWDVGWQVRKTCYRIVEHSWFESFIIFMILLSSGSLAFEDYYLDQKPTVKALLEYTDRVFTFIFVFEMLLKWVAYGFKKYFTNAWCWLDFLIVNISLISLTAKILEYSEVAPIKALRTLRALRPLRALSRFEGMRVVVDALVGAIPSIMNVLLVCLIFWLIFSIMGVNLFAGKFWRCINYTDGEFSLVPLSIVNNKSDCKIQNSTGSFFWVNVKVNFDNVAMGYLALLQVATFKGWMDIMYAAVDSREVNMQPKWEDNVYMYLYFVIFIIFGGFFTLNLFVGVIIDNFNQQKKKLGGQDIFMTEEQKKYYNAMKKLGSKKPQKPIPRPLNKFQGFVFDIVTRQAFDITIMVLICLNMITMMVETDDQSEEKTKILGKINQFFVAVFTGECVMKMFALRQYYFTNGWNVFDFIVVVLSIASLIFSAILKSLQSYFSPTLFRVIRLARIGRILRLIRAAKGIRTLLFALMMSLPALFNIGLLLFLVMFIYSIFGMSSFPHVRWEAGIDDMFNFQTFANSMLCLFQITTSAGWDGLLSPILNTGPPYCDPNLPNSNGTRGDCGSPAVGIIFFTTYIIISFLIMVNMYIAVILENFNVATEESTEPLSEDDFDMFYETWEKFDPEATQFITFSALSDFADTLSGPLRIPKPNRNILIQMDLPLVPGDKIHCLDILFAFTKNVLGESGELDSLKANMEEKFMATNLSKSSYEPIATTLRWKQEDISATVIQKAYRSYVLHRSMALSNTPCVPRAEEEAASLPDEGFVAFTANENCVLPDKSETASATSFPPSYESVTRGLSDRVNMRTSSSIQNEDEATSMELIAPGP

[2] = molecular target: Sodium channel protein type 5 subunit alpha (Homo sapiens, UniProt Q14524); assay: Inhibition of human Nav1.5
Chain of Sodium channel protein type 5 subunit alpha (Q14524 whole entry): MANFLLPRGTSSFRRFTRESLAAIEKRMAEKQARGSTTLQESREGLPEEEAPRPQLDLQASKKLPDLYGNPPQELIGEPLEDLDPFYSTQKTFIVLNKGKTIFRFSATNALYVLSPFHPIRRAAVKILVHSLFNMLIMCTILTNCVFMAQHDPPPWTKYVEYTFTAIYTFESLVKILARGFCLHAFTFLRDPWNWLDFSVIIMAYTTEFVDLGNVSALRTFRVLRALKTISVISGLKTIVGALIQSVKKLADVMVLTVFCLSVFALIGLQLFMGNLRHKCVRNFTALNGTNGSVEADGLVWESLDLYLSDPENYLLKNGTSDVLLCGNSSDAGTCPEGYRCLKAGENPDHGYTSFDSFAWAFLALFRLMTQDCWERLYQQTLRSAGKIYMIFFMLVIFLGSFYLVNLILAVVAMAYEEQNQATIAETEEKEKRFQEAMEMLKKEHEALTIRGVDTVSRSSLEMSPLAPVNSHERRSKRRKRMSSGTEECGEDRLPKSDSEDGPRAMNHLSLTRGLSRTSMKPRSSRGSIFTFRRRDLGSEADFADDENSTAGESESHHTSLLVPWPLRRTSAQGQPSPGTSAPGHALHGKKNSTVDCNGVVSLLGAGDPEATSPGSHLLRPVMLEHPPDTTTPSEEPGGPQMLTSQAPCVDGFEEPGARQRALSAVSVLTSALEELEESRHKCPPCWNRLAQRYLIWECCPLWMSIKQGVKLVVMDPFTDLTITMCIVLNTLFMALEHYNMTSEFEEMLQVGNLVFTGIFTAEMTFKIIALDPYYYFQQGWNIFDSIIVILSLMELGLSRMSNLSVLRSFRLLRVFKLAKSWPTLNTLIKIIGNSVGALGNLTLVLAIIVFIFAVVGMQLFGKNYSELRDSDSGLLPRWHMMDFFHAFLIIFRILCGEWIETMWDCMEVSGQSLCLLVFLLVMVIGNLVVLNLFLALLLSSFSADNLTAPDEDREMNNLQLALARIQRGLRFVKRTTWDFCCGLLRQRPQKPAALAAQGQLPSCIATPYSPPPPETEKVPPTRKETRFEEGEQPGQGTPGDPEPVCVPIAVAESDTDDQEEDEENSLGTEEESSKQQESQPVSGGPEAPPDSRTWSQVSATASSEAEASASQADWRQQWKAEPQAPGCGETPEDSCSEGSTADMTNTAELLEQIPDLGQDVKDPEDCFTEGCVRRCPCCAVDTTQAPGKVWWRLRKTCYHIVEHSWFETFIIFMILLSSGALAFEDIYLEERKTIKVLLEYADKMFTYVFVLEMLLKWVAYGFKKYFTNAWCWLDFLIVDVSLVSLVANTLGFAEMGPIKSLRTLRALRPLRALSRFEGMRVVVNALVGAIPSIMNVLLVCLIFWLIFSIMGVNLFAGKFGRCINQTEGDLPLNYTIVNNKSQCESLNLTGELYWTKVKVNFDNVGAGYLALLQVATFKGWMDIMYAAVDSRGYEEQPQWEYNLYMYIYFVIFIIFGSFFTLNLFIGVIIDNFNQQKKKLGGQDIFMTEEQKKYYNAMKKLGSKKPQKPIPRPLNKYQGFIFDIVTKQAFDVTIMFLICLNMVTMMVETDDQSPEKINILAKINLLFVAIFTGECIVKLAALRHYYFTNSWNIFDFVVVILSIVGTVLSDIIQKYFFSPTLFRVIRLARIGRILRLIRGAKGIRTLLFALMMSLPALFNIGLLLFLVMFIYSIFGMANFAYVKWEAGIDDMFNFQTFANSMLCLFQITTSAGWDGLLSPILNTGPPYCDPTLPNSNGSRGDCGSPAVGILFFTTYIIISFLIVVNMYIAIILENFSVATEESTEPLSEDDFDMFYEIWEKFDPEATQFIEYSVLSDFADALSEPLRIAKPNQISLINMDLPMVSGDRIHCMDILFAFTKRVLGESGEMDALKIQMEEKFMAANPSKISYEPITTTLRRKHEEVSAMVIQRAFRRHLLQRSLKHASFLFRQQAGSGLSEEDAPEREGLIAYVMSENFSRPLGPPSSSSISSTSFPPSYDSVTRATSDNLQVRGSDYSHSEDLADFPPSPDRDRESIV

[3] = molecular target: Voltage-gated inwardly rectifying potassium channel KCNH2 (Homo sapiens, UniProt Q12809); assay: Inhibition of human ERG
Chain of Voltage-gated inwardly rectifying potassium channel KCNH2 (Q12809 whole entry): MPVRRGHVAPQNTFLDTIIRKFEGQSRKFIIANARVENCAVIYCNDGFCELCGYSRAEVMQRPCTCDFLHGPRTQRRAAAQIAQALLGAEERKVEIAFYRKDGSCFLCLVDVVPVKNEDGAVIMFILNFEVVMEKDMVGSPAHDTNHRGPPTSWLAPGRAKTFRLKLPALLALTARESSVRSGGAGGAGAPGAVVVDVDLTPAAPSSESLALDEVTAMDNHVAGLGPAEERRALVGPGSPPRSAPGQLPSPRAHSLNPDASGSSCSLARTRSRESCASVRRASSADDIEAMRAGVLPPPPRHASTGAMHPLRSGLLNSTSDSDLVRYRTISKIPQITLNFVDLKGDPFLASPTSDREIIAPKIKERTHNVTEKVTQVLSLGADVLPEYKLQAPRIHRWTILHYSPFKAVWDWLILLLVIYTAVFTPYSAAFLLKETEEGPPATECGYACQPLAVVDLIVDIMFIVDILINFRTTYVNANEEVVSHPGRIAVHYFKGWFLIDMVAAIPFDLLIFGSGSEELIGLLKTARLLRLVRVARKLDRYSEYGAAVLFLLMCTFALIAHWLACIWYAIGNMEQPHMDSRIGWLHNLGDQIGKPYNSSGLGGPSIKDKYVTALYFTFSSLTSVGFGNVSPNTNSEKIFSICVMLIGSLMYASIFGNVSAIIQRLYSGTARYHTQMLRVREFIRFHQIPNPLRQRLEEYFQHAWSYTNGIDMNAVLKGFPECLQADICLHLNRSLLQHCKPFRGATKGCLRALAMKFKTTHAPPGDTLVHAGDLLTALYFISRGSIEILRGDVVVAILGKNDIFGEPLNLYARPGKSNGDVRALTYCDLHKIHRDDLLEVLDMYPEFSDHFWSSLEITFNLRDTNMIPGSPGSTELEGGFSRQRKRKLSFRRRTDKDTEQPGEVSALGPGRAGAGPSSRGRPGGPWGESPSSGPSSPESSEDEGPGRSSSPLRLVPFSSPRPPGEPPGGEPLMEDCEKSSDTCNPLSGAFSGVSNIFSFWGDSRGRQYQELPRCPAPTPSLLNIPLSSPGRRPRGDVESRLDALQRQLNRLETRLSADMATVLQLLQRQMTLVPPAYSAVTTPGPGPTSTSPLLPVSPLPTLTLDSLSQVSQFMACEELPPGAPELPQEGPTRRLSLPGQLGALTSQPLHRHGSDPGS

[4] = Apparent permeability from apical to basolateral in RRCK cells; format: ADME, cell-based, Canis lupus familiaris, MDCKII-LE; conditions: dog, MDCK
[5] = Stability in human liver microsomes assessed per mg protein; format: ADME, Microsome
[6] = Stability in human hepatocytes assessed per million cells; format: ADME, cell-based, Hepatocyte
[7] = Dissociation constant, pKa of the compound; format: physicochemical
Nav1.5 (SCN5A) = Nav1.5 (SCN5A) (Homo sapiens, UniProt Q14524); assay: Inhibition of human Nav1.5 at 10 uM
[8] = molecular target: Sodium channel protein type 1 subunit alpha (Homo sapiens, UniProt P35498); assay: Inhibition of human Nav1.1
[9] = molecular target: Sodium channel protein type 2 subunit alpha (Homo sapiens, UniProt Q99250); assay: Inhibition of human Nav1.2
[10] = Lipophilicity, log D of the compound; format: physicochemical; conditions: octanol/water
[11] = Solubility of the compound at pH 7.4; format: physicochemical; conditions: buffer
[12] = molecular target: Sodium channel protein type 3 subunit alpha (Homo sapiens, UniProt Q9NY46); assay: Inhibition of human Nav1.3
[13] = molecular target: Sodium channel protein type 4 subunit alpha (Homo sapiens, UniProt P35499); assay: Inhibition of human Nav1.4
[14] = molecular target: Sodium channel protein type 8 subunit alpha (Homo sapiens, UniProt Q9UQD0); assay: Inhibition of human Nav1.6
[15] = molecular target: Sodium channel protein type 9 subunit alpha (Homo sapiens, UniProt Q15858); assay: Inhibition of human Nav1.7
[16] = molecular target: T1, Potassium voltage-gated channel subfamily KQT member 1 (Homo sapiens, UniProt P51787); assay: Inhibition of KvLQT1 (unknown origin)
T1 sequence (P51787 whole entry): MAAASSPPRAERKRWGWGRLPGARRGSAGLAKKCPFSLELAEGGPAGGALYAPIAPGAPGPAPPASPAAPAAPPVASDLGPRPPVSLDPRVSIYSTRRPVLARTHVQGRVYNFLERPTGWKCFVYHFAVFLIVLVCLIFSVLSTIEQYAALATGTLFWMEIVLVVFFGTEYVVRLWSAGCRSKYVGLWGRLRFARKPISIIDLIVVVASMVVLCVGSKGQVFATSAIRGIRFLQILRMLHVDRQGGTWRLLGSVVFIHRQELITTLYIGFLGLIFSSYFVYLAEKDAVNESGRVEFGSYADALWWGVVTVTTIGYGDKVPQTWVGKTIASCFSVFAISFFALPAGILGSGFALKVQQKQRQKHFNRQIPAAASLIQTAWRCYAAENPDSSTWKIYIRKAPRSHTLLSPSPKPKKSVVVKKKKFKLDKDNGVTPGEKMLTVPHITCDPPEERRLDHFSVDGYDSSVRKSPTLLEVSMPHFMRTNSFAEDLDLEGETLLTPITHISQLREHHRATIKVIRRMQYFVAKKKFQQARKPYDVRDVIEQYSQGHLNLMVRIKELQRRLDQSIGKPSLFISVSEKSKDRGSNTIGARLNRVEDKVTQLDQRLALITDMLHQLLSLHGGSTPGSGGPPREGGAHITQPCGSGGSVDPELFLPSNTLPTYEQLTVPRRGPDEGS

[17] = molecular target: Potassium voltage-gated channel subfamily A member 5 (Homo sapiens, UniProt P22460); assay: Inhibition of Kv1.5 (unknown origin)
[18] = molecular target: Potassium voltage-gated channel subfamily A member 1 (Homo sapiens, UniProt Q09470); assay: Inhibition of Kv1.1 (unknown origin)
[19] = molecular target: Potassium voltage-gated channel subfamily A member 2 (Homo sapiens, UniProt P16389); assay: Inhibition of Kv1.2 (unknown origin)
[20] = molecular target: Small conductance calcium-activated potassium channel protein 2 (Homo sapiens, UniProt Q9H2S1); assay: Inhibition of SK2 (unknown origin)
[21] = molecular target: Voltage-gated T-type calcium channel (Homo sapiens, UniProt O95180+O43497+Q9P0X4); assay: Inhibition of T-type calcium channel (unknown origin); format: protein assay
[22] = molecular target: Voltage-gated L-type calcium channel (Homo sapiens, UniProt Q13936+Q13698+Q01668+O60840); assay: Inhibition of L-type calcium channel (unknown origin); format: protein assay
[23] = molecular target: T2, Gamma-aminobutyric acid receptor subunit alpha-1/gamma-2 (Homo sapiens, UniProt P14867+P18507); assay: Inhibition of GABA receptor alpha1gamma2 (unknown origin); format: protein-complex assay
T2 sequence (P14867 whole entry): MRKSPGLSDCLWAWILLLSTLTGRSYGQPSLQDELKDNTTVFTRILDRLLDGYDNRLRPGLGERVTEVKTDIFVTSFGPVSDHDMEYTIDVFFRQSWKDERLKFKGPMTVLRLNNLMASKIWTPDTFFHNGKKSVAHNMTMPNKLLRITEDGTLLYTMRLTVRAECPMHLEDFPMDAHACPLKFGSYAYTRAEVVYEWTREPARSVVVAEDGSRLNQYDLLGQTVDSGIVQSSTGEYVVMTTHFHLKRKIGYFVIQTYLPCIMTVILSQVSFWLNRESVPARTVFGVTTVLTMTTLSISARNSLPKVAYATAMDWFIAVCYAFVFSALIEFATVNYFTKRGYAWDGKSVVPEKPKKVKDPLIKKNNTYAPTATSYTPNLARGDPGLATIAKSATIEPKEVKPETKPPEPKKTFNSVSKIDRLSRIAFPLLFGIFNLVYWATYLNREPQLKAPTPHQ
T2 sequence (P18507 whole entry): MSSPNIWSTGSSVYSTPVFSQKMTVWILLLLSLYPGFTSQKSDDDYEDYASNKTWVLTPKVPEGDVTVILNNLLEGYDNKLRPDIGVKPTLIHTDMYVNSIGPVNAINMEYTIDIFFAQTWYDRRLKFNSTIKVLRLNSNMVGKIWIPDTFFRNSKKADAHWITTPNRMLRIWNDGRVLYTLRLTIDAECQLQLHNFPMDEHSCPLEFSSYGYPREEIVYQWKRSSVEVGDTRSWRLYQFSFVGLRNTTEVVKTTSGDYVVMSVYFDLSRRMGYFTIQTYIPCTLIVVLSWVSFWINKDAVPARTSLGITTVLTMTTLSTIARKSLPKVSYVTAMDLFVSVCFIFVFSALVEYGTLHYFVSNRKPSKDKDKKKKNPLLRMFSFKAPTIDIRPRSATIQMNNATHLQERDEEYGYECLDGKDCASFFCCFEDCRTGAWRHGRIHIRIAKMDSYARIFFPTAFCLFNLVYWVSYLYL

[24] = Plasma clearance in rat at 1 mg/kg, iv or 3 mg/kg, po; format: ADME, organism-based
[25] = Unbound clearance in rat at 1 mg/kg, iv or 3 mg/kg, po; format: ADME, organism-based; conditions: in vivo
[26] = Half life in rat at 1 mg/kg, iv or 3 mg/kg, po; format: ADME, organism-based; conditions: in vivo
[27] = AUC (0 to infinity) in rat at 1 mg/kg, iv or 3 mg/kg, po; format: ADME, organism-based; conditions: in vivo
[28] = Volume of distribution in rat at 1 mg/kg, iv or 3 mg/kg, po; format: ADME, organism-based; conditions: in vivo
[29] = Oral bioavailability in rat at 3 mg/kg; format: ADME, organism-based; conditions: in vivo

SMILES: CC(C)(C)c1ccc2ncc([C@@H](N)CO)nc2c1
IC50 [1]: > 1 µM

IC50 [1]: 0.593 µM
SMILES: CC1(c2ccc3[nH]c([C@@H](N)CO)nc3c2)CC1

IC50 [1]: 0.534 µM
SMILES: C[C@@H](O)[C@H](N)c1nc2cc(C(F)(F)F)ccc2[nH]1

Papp A→B [4]: 2.2 ×10⁻⁶ cm/s | Stability [5]: < 11 µL/min | Stability [6]: 2.5 µL/min | pKa [7]: 7
SMILES: C[C@@H](C(N)=O)[C@H](N)c1cn2cc(C(C)(C)C)ccc2n1
IC50 [2]: > 10 µM | IC50 [3]: > 72 µM

IC50 [1]: 0.579 µM
SMILES: C[C@H](O)[C@@H](N)c1nc2cc(-c3ccc(C#N)cc3)ccc2[nH]1

SMILES: CC(C)(C)c1ccc2ncc([C@H](N)CO)nc2c1
IC50 [1]: > 1 µM

IC50 [1]: 0.018 µM
SMILES: CO[C@H](C)[C@H](N)c1nc2cc(-c3ccc(C#N)cc3F)ccc2[nH]1

IC50 [1]: 0.043 µM
SMILES: CC(C)c1ccc2[nH]c([C@@H](N)[C@@H](C)O)nc2c1

IC50 [1]: 0.728 µM
SMILES: C[C@@H](O)[C@H](N)c1nc2cc(C(C)(C)C#N)ccc2[nH]1

IC50 [1]: 0.607 µM
SMILES: CC(C)(C)c1ccc2[nH]c(C(C)(C)N)nc2c1
inhibition at 10 µM (Nav1.5 (SCN5A)): 12%

IC50 [1]: 0.024 µM
SMILES: CO[C@H](C)[C@H](N)c1nc2cc(C(C)(C)C)ccc2[nH]1

IC50 [1]: 0.002 µM
SMILES: CCC[C@H](N)c1nc2cc(C(C)(C)C)ccc2[nH]1

IC50 [1]: 0.095 µM
SMILES: C[C@@H](O)[C@H](N)c1nc2cc(S(F)(F)(F)(F)F)ccc2[nH]1

IC50 [1]: 0.998 µM
SMILES: CO[C@H](C)[C@H](N)c1nc2cc(-c3ccc(C#N)nc3)ccc2[nH]1

IC50 [1]: 0.708 µM
SMILES: CCC(C)c1ccc2[nH]c([C@@H](N)CO)nc2c1 (stereo partly drawn)

IC50 [1]: 0.065 µM
SMILES: CC(C)(C)c1ccc2[nH]c([C@@](C)(N)CO)nc2c1

IC50 [1]: 0.742 µM
SMILES: CN[C@@H](CC(N)=O)c1nc2cc(C(C)(C)C)ccc2[nH]1

IC50 [1]: 0.031 µM
SMILES: CC(C)(C)c1ccc2[nH]c([C@H]3C[C@@H](O)CN3)nc2c1

IC50 [1]: 0.043 µM
SMILES: CC(C)(C)c1ccc2[nH]c([C@H]3CCCN3)nc2c1

SMILES: CCCC(O)c1nc2cc(C(C)(C)C)ccc2[nH]1 (stereo not drawn)
IC50 [1]: > 1 µM

IC50 [1]: 2.57 µM
SMILES: CO[C@H](C)[C@H](N)c1nc2cc(OC(F)(F)F)ccc2[nH]1

SMILES: CC(C)(C)c1ccc2nc([C@H](N)CO)cnc2c1
IC50 [1]: > 1 µM

SMILES: CC(C)(C)c1ccc2nc([C@@H](N)CO)cnc2c1
IC50 [1]: > 1 µM

IC50 [1]: 0.015 µM | IC50 [8]: > 30 µM | IC50 [9]: > 30 µM | Papp A→B [4]: 3.5 ×10⁻⁶ cm/s | Stability [5]: < 11 µL/min | Stability [6]: < 2 µL/min | logD [10]: 2.1 | pKa [7]: 5.9 | solubility [11]: 2000 µg/mL (≈ 7.29 mM) | IC50 [12]: > 30 µM | IC50 [13]: > 30 µM | IC50 [14]: > 30 µM | IC50 [15]: > 30 µM | IC50 [16]: > 30 µM | IC50 [17]: > 30 µM | IC50 [18]: > 30 µM | IC50 [19]: > 30 µM | IC50 [20]: > 30 µM | IC50 [21]: > 30 µM | IC50 [22]: > 30 µM | IC50 [23]: > 30 µM | clearance [24]: 40 mL/min/kg | CL free [25]: 214 mL/min/kg | half-life [26]: 1.5 h | AUC(0-inf) [27]: 962 ng·h/mL | Vd [28]: 2.3 L/kg | bioavailability [29]: 61%
SMILES: C[C@@H](C(N)=O)[C@H](N)c1nc2ccc(C(C)(C)C)cc2[nH]1 [PF-06305591]
IC50 [2]: > 30 µM | IC50 [3]: > 30 µM
